Columns and labels:
Type in all cases: in vivo
Matricaria spec = assay: Outdoor post-emergence herbicidal trial, MATCH; settings: Example B.V, outdoors
Procedure: (§1) Outdoors, crop plants were grown on plots of a size of from 5 to 10 m^2 on various soils and under various climatic conditions, and the natural presence of harmful plants and/or their seeds in the soil was utilized for the experiments. The treatment with the compositions according to the invention or the herbicides A and B applied individually was carried out after emergence of the harmful and the crop plants, in general at the 2- to 4-leaf stage. The active compounds or active compound combinations, formulated as WG, WP or EC, were applied by the post-emergence method. After 2 to 8 weeks, visual evaluation was carried out in comparison with an untreated comparative group. […] In addition, the herbicidal activities of the compositions according to the invention exceed the expected values according to Colby.
(§2) If the observed activity values of the mixtures already exceed the formal sum of the values for the trials with individual applications, they also exceed the expected value according to Colby which is calculated using the following formula (cf. S. R. Colby; in Weeds 15 (1967) pp. 20 to 22): E=A+B−(A×B/100)
(§3) The figures denote: • A, B=Activity of components A and B in percent, at a dosage of a and b gram of ai/ha, respectively. • E=Expected value in % at a dosage of a+b gram of ai/ha.

Polygonum convolvulus = assay: Outdoor post-emergence herbicidal trial, POLCO; settings: Example B.V, outdoors
Procedure: as §1, §2, §3

Digitaria sanguinalis = assay: Outdoor post-emergence herbicidal trial, DIGSA; settings: Example B.VII, outdoors
Procedure: as §1, §2, §3

Portulaca oleracea = assay: Outdoor post-emergence herbicidal trial, POROL; settings: Example B.VI, outdoors
Procedure: as §1, §2, §3

Amaranthus retroflexus = assay: Outdoor post-emergence herbicidal trial, AMARE; settings: Example B.VI, outdoors
Procedure: as §1, §2, §3

Sorghum halepense = assay: Outdoor post-emergence herbicidal trial, SORHA; settings: Example B.VII, outdoors
Procedure: as §1, §2, §3

Galium aparine = assay: Outdoor post-emergence herbicidal trial, GALAP; settings: Example B.I, outdoors
Procedure: as §1, §2, §3

Abutilon theophrasti = assay: Outdoor post-emergence herbicidal trial, ABUTH; settings: outdoors
Procedure: as §1, §2, §3

Setaria faberi = assay: Outdoor post-emergence herbicidal trial, SETFA; settings: Example B.II, outdoors
Procedure: as §1, §2, §3

Echinocloa crus galli = assay: Outdoor post-emergence herbicidal trial, ECHCG; settings: outdoors
Procedure: as §1, §2, §3

Papaver rhoeas = assay: Outdoor post-emergence herbicidal trial, PAPRH; settings: Example B.I, outdoors
Procedure: as §1, §2, §3

Brassica napus = assay: Outdoor post-emergence herbicidal trial, BRAPP; settings: Example B.II, outdoors
Procedure: as §1, §2, §3

[1] = Example B.III, B2.2 840 g ai/ha

## N#Cc1cc(Br)c(O)c(Br)c1 [Component B2.3, bromoxynil]
Matricaria spec; B2.3 100 g ai/ha
  found (herbicidal activity): 55%
Polygonum convolvulus; B2.3 100 g ai/ha
  found (herbicidal activity): 45%

## COc1cc(OC)nc(NC(=O)NS(=O)(=O)c2ncccc2C(=O)N(C)C)n1 [Component B1.9, nicosulfuron]
Digitaria sanguinalis; B1.9 40 g ai/ha
  found (herbicidal activity): 50%
Portulaca oleracea; B1.9 40 g ai/ha
  found (herbicidal activity): 0%
Amaranthus retroflexus; B1.9 40 g ai/ha
  found (herbicidal activity): 90%
Sorghum halepense; B1.9 40 g ai/ha
  found (herbicidal activity): 62%

## CS(=O)(=O)c1ccc(C(=O)C2C(=O)CCCC2=O)c(Cl)c1COCC(F)(F)F [Component A, 2-[2-chloro-3-(2,2,2-trifluoroethoxymethyl)-4-methylsulfonylbenzoyl]cyclohexane-1,3-dione]
Matricaria spec; A 38 g ai/ha
  found (herbicidal activity): 45%
Digitaria sanguinalis; A 75 g ai/ha
  found (herbicidal activity): 46%
Galium aparine; A 75 g ai/ha
  found (herbicidal activity): 50%
Portulaca oleracea; A 75 g ai/ha
  found (herbicidal activity): 50%
Abutilon theophrasti; Example B.III, A 100 g ai/ha
  found (herbicidal activity): 75%
Abutilon theophrasti; Example B.IV, A 100 g ai/ha
  found (herbicidal activity): 75%
Setaria faberi; A 100 g ai/ha
  found (herbicidal activity): 65%
Amaranthus retroflexus; A 75 g ai/ha
  found (herbicidal activity): 90%
Echinocloa crus galli; Example B.III, A 100 g ai/ha
  found (herbicidal activity): 98%
Echinocloa crus galli; Example B.IV, A 100 g ai/ha
  found (herbicidal activity): 98%
Polygonum convolvulus; A 38 g ai/ha
  found (herbicidal activity): 50%
Sorghum halepense; A 75 g ai/ha
  found (herbicidal activity): 50%
Papaver rhoeas; A 75 g ai/ha
  found (herbicidal activity): 0%
Brassica napus; A 100 g ai/ha
  found (herbicidal activity): 68%

## CCNc1nc(Cl)nc(NC(C)C)n1 [Component B2.2, atrazine]
Galium aparine; B2.2 200 g ai/ha
  found (herbicidal activity): 30%
Abutilon theophrasti; [1]
  found (herbicidal activity): 20%
Abutilon theophrasti; Example B.IV, B2.2 840 g ai/ha
  found (herbicidal activity): 20%
Setaria faberi; B2.2 840 g ai/ha
  found (herbicidal activity): 5%
Echinocloa crus galli; [1]
  found (herbicidal activity): 0%
Echinocloa crus galli; Example B.IV, B2.2 840 g ai/ha
  found (herbicidal activity): 0%
Papaver rhoeas; B2.2 200 g ai/ha
  found (herbicidal activity): 60%
Brassica napus; B2.2 840 g ai/ha
  found (herbicidal activity): 0%
